The values below come from publication PMC4182091, “A Common Minimal Motif for the Ligands of HLA-B*27 Class I Molecules” (PLoS ONE, 2014).

Like-named read-outs stand apart in the source and are kept apart here. Ends that are not written are not given here. Some results are limits rather than exact numbers.

Type in all cases: cell-based
In one test the target is T1, HLA-B*2703 (Homo sapiens, UniProt P01889, D138H/D201E/E176V/E204Q/G107R/H137Y/K202T/N104T/N87E/Q56L/Q94K/R106L/R155S/R180L/S101D/S121N/S48T/Y140D/Y33H/Y83H/Y91C).
T1 construct: expressed in transfected cells; host or cells: RMA-S (TAP-deficient murine cell line)
The test can be described thus: HLA/peptide complex stability assay, RMA-S cells transfected with HLA-B*2703. To be noted: for fluorescence index, B*2703: peptide 200 µM.

The target in the next test is T2, HLA-B*2701 (Homo sapiens, UniProt P01889, D138H/D201E/D98Y/E176V/E204Q/G107R/H137Y/K202T/L105A/N104T/N87E/Q56L/Q94K/R106L/R155S/R180L/S101N/S121N/S48T/Y140D/Y33H/Y91C).
T2 construct: expressed in transfected cells; host or cells: RMA-S (TAP-deficient murine cell line)
The test can be described thus: HLA/peptide complex stability assay, RMA-S cells transfected with HLA-B*2701. To be noted: for fluorescence index, B*2701: peptide 200 µM.

For the next test, the target named is HLA-B*2702 (Homo sapiens, UniProt P01889, D138H/D201E/E176V/E204Q/G107R/H137Y/K202T/L105A/N104I/N87E/Q56L/Q94K/R106L/R155S/R180L/S101N/S121N/S48T/Y140D/Y33H/Y91C). The test can be described thus: HLA/peptide complex stability assay, RMA-S cells transfected with HLA-B*2702. The note with it: for fluorescence index, B*2702: peptide 200 µM.
The next test addresses T3, HLA-B*2706 (Homo sapiens, UniProt P01889, A235G/D201E/E204Q/G107R/H137Y/K202T/N104T/N87E/Q56L/Q94K/R106L/R155S/R180L/S121N/S48T/Y33H/Y91C).
T3 construct: expressed in transfected cells; host or cells: RMA-S (TAP-deficient murine cell line)
The test can be described thus: HLA/peptide complex stability assay, RMA-S cells transfected with HLA-B*2706. The note with it: for fluorescence index, B*2706: peptide 200 µM.

The next test deals with T4, HLA-B*2709 (Homo sapiens, UniProt P01889, D138H/D201E/E176V/E204Q/G107R/H137Y/K202T/N104T/N87E/Q56L/Q94K/R106L/R155S/R180L/S101D/S121N/S48T/Y140H/Y33H/Y91C).
T4 construct: expressed in transfected cells; host or cells: RMA-S (TAP-deficient murine cell line)
The test can be described thus: HLA/peptide complex stability assay, RMA-S cells transfected with HLA-B*2709. The note with it: for fluorescence index, B*2709: peptide 200 µM.

The target of a further test is T5, HLA-B*2705 (Homo sapiens, UniProt P01889, D138H/D201E/E176V/E204Q/G107R/H137Y/K202T/N104T/N87E/Q56L/Q94K/R106L/R155S/R180L/S101D/S121N/S48T/Y140D/Y33H/Y91C).
T5 construct: expressed in transfected cells; host or cells: RMA-S (TAP-deficient murine cell line)
The test can be described thus: HLA/peptide complex stability assay, RMA-S cells transfected with HLA-B*2705. The note with it: for fluorescence index, B*2705: peptide 200 µM.

The next test deals with HLA-B*2704 (Homo sapiens, UniProt P01889, A235G/D138H/D201E/E204Q/G107R/H137Y/K202T/N104T/N87E/Q56L/Q94K/R106L/R155S/R180L/S121N/S48T/Y140D/Y33H/Y91C). The test can be described thus: HLA/peptide complex stability assay, RMA-S cells transfected with HLA-B*2704. To be noted: for fluorescence index, B*2704: peptide 200 µM.
[1] abbreviates: mean ± S.D. of three to five independent experiments, SD.
[2] abbreviates: relative affinity (EC50 class), B*2703.
The mark [3] stands for this setting: relative affinity (EC50 class), B*2701.
Where [4] appears, read: relative affinity (EC50 class), B*2702.
Where [5] appears, read: relative affinity (EC50 class), B*2706.
Setting [6] is: relative affinity (EC50 class), B*2709.
[7] abbreviates: relative affinity (EC50 class), B*2705.
The mark [8] stands for this setting: relative affinity (EC50 class), B*2704.

Turning to “ARANNVLKNEM [A1-NP 184-194, monosubstituted Ala analog of HRSV NP 184-194, […]]”, the “fluorescence index, B*2703” value at HLA-B*2703 (setting [1]) was determined as 1.4±0.1. Moreover, the “fluorescence index, B*2701” value on HLA-B*2701 (setting [1]) is given as 2.0±0.1. At HLA-B*2702 (setting [1]), the “fluorescence index, B*2702” value is given as 2.0±0.3. For the same sequence, on HLA-B*2706 (setting [1]), the “fluorescence index, B*2706” value was 3.0±0.3. At HLA-B*2709 (setting [1]), the “fluorescence index, B*2709” value is 1.8±0.1. The “fluorescence index, B*2705” value on HLA-B*2705 (setting [1]) is given as 2.4±0.3. At HLA-B*2704 (setting [1]), the “fluorescence index, B*2704” value was 2.2±0.2.
On to “ARYKGLLPKDI [A1-NP 195-205, monosubstituted Ala analog of HRSV NP 195-205, […]]”, for which the “fluorescence index, B*2703” value on HLA-B*2703 (setting [1]) is listed as 2.1±0.2. Moreover, the “fluorescence index, B*2701” value at HLA-B*2701 (setting [1]) worked out at 1.9±0.1. The “fluorescence index, B*2702” value at HLA-B*2702 (setting [1]) was 1.8±0.1. At HLA-B*2706 (setting [1]), the “fluorescence index, B*2706” value was found to be 2.7±0.3. In addition, the “fluorescence index, B*2709” value at HLA-B*2709 (setting [1]) stood at 1.8±0.2. Further, the “fluorescence index, B*2705” value on HLA-B*2705 (setting [1]) is reported as 2.4±0.3. The “fluorescence index, B*2704” value on HLA-B*2704 (setting [1]) is given as 2.2±0.3.
In general, EC50 refers to the concentration at which the effect is half-maximal. As to GRNEVFSNK [L 2089-2097], the EC50 is 71 ± 28 µM on HLA-B*2703 (EC50, B*2703, SD); 61 to 200 µM at HLA-B*2703 (setting [2]); greater than 200 µM on HLA-B*2701 (read-out: EC50, B*2701); greater than 200 µM at HLA-B*2701 (setting [3]); greater than 200 µM at HLA-B*2702 (EC50, B*2702); greater than 200 µM at HLA-B*2702 (setting [4]). The EC50 at HLA-B*2706 (EC50, B*2706) was greater than 200 µM; at HLA-B*2706 (setting [5]), greater than 200 µM; at HLA-B*2709 (EC50, B*2709, SD) it was 68 ± 24 µM; at HLA-B*2709 (setting [6]) it was 61 to 200 µM; at HLA-B*2705 (EC50, B*2705, SD), 32 ± 6 µM; on HLA-B*2705 (setting [7]) it was 20 to 60 µM. In addition, the EC50 was 169 ± 57 µM on HLA-B*2704 (EC50, B*2704, SD) and 61 to 200 µM at HLA-B*2704 (setting [8]). Besides, the “relative MHC class I affinity according to the EC50 value, in words (high, medium, low)” value (“relative MHC class I affinity according” for short) on HLA-B*2705 is on record as “medium”.
Take HRFIYLINH [NS2 37-45]: the EC50 at HLA-B*2703 (EC50, B*2703, SD) was 10 ± 5 µM; at HLA-B*2701 (read-out: EC50, B*2701) it was greater than 200 µM; on HLA-B*2701 (setting [3]), greater than 200 µM; at HLA-B*2702 (EC50, B*2702, SD), 77 ± 14 µM; at HLA-B*2702 (setting [4]) it was 61 to 200 µM; at HLA-B*2706 (EC50, B*2706, SD), 45 ± 19 µM. The EC50 on HLA-B*2706 (setting [5]) is 20 to 60 µM; on HLA-B*2709 (EC50, B*2709, SD), 33 ± 9 µM; at HLA-B*2709 (setting [6]) it was 20 to 60 µM; on HLA-B*2705 (EC50, B*2705, SD), 7 ± 4 µM; on HLA-B*2704 (EC50, B*2704, SD) it was 78 ± 33 µM; at HLA-B*2704 (setting [8]), 61 to 200 µM. Besides, on HLA-B*2705, the “relative MHC class I affinity according” value was “high”.
Regarding HRQDINGKEM [NP 100-109], the EC50 at HLA-B*2703 (EC50, B*2703, SD) is 96 ± 43 µM; at HLA-B*2703 (setting [2]) it was 61 to 200 µM; at HLA-B*2701 (EC50, B*2701) it was greater than 200 µM; at HLA-B*2701 (setting [3]), greater than 200 µM; at HLA-B*2702 (EC50, B*2702, SD) it was 132 ± 53 µM; on HLA-B*2702 (setting [4]), 61 to 200 µM. The EC50 on HLA-B*2706 (EC50, B*2706, SD) is 3 ± 2 µM; at HLA-B*2709 (EC50, B*2709, SD), 24 ± 7 µM; on HLA-B*2709 (setting [6]), 20 to 60 µM; at HLA-B*2705 (EC50, B*2705, SD), 50 ± 15 µM; on HLA-B*2705 (setting [7]), 20 to 60 µM; at HLA-B*2704 (EC50, B*2704, SD), 67 ± 27 µM. At HLA-B*2704 (setting [8]), this sequence showed an EC50 of 61 to 200 µM. The “relative MHC class I affinity according” value at HLA-B*2705 is “medium”.
On to “KRAVGIGAL [HIV gp160 500-508, reference compound]”, for which the EC50 on HLA-B*2703 (Table 2, peptide concentration at 50% of maximum fluorescence, range 0.01–200 µM, transfected RMA-S cells, flow cytometry, mean ± S.D. of three to five independent experiments, - = no statistical difference in fluorescence index to negative control, SD, read-out: EC50, B*2703) was determined as 14 ± 7 µM; on HLA-B*2701 (Table 2, peptide concentration at 50% of maximum fluorescence, range 0.01–200 µM, transfected RMA-S cells, flow cytometry, mean ± S.D. of three to five independent experiments, - = no statistical difference in fluorescence index to negative control, SD, read-out: EC50, B*2701), 17 ± 3 µM; on HLA-B*2702 (Table 2, peptide concentration at 50% of maximum fluorescence, range 0.01–200 µM, transfected RMA-S cells, flow cytometry, mean ± S.D. of three to five independent experiments, - = no statistical difference in fluorescence index to negative control, SD, read-out: EC50, B*2702), 16 ± 6 µM; on HLA-B*2706 (Table 2, peptide concentration at 50% of maximum fluorescence, range 0.01–200 µM, transfected RMA-S cells, flow cytometry, mean ± S.D. of three to five independent experiments, - = no statistical difference in fluorescence index to negative control, SD, read-out: EC50, B*2706), 1 ± 1 µM; on HLA-B*2709 (Table 2, peptide concentration at 50% of maximum fluorescence, range 0.01–200 µM, transfected RMA-S cells, flow cytometry, mean ± S.D. of three to five independent experiments, - = no statistical difference in fluorescence index to negative control, SD, read-out: EC50, B*2709), 8 ± 1 µM; on HLA-B*2705 (Table 2, peptide concentration at 50% of maximum fluorescence, range 0.01–200 µM, transfected RMA-S cells, flow cytometry, mean ± S.D. of three to five independent experiments, - = no statistical difference in fluorescence index to negative control, SD, read-out: EC50, B*2705), 12 ± 3 µM. In addition, the EC50 at HLA-B*2704 (Table 2, peptide concentration at 50% of maximum fluorescence, range 0.01–200 µM, transfected RMA-S cells, flow cytometry, mean ± S.D. of three to five independent experiments, - = no statistical difference in fluorescence index to negative control, SD, read-out: EC50, B*2704) is 24 ± 8 µM; on HLA-B*2704 (Table 3, classes of EC50 from stabilization assay in transfected RMA-S cells, read-out: relative affinity (EC50 class), B*2704) it was 20 to 60 µM.
